Data published in the NIST ThermoML archive (doi:10.1016/j.fluid.2010.10.028).

Test: xn = mol fraction of the nth substance listed
Conditions: Liquid, Vibrating tube method

CC(C)=O [acetone] + CCCCCCC
Conditions	mass density [kg/m3]
387.33 K, 39820 kPa, x1 = 0.7024	691.19
387.33 K, 44790 kPa, x1 = 0.7024	696.6
387.33 K, 44850 kPa, x1 = 0.801	707.68
387.33 K, 44910 kPa, x1 = 0.4	722
387.33 K, 44910 kPa, x1 = 0.8992	722
387.33 K, 49890 kPa, x1 = 0.7024	701.8
387.33 K, 54870 kPa, x1 = 0.4	732.14
387.33 K, 54870 kPa, x1 = 0.8992	732.14
387.33 K, 59840 kPa, x1 = 0.492	692.57
387.33 K, 59880 kPa, x1 = 0.7024	711.17
387.33 K, 69820 kPa, x1 = 0.801	731
387.33 K, 69830 kPa, x1 = 0.4	745.58
387.33 K, 69830 kPa, x1 = 0.8992	745.58
387.33 K, 79900 kPa, x1 = 0.801	739.02
387.33 K, 84880 kPa, x1 = 0.801	742.74
387.33 K, 89860 kPa, x1 = 0.801	746.32
387.33 K, 99770 kPa, x1 = 0.7024	741.29
387.33 K, 99830 kPa, x1 = 0.801	753.17
387.33 K, 114840 kPa, x1 = 0.801	762.65
387.33 K, 124840 kPa, x1 = 0.801	768.53
387.33 K, 129850 kPa, x1 = 0.801	771.37
387.34 K, 1350 kPa, x1 = 0.492	613.12
387.34 K, 14820 kPa, x1 = 0.7024	656.98
387.34 K, 19850 kPa, x1 = 0.492	648.12
387.34 K, 24830 kPa, x1 = 0.7024	672.45
387.34 K, 24840 kPa, x1 = 0.492	655.23
387.34 K, 29850 kPa, x1 = 0.492	661.75
387.34 K, 34810 kPa, x1 = 0.7024	685.41
387.34 K, 34840 kPa, x1 = 0.492	667.74
387.34 K, 39870 kPa, x1 = 0.492	673.37
387.34 K, 44860 kPa, x1 = 0.492	678.6
387.34 K, 49850 kPa, x1 = 0.492	683.53
387.34 K, 54850 kPa, x1 = 0.492	688.17
387.34 K, 54880 kPa, x1 = 0.7024	706.61
387.34 K, 64820 kPa, x1 = 0.492	696.75
387.34 K, 64880 kPa, x1 = 0.7024	715.51
387.34 K, 69860 kPa, x1 = 0.7024	719.63
387.34 K, 69930 kPa, x1 = 0.492	700.84
387.34 K, 74840 kPa, x1 = 0.7024	723.6
387.34 K, 74900 kPa, x1 = 0.492	704.65
387.34 K, 79840 kPa, x1 = 0.7024	727.41
387.34 K, 79890 kPa, x1 = 0.492	708.31
387.34 K, 84810 kPa, x1 = 0.7024	731.07
387.34 K, 84890 kPa, x1 = 0.492	711.86
387.34 K, 89810 kPa, x1 = 0.7024	734.6
387.34 K, 89860 kPa, x1 = 0.492	715.24
387.34 K, 94770 kPa, x1 = 0.7024	737.98
387.34 K, 94840 kPa, x1 = 0.492	718.51
387.34 K, 99820 kPa, x1 = 0.492	721.68
387.34 K, 104740 kPa, x1 = 0.7024	744.46
387.34 K, 104800 kPa, x1 = 0.492	724.73
387.34 K, 109720 kPa, x1 = 0.7024	747.55
387.34 K, 109770 kPa, x1 = 0.492	727.68
387.34 K, 114800 kPa, x1 = 0.7024	750.59
387.34 K, 114840 kPa, x1 = 0.492	730.61
387.34 K, 119810 kPa, x1 = 0.7024	753.51
387.34 K, 119850 kPa, x1 = 0.492	733.41
387.34 K, 124820 kPa, x1 = 0.7024	756.37
387.34 K, 124850 kPa, x1 = 0.492	736.14
387.34 K, 129810 kPa, x1 = 0.7024	759.13
387.34 K, 129840 kPa, x1 = 0.492	738.77
397.26 K, 1500 kPa, x1 = 0.801	626.11
397.26 K, 1680 kPa, x1 = 0.4	640.61
397.26 K, 1680 kPa, x1 = 0.8992	640.61
397.26 K, 5010 kPa, x1 = 0.4	649.41
397.26 K, 5010 kPa, x1 = 0.8992	649.41
397.26 K, 14870 kPa, x1 = 0.611	638.19
397.26 K, 14980 kPa, x1 = 0.4	670.71
397.26 K, 14980 kPa, x1 = 0.8992	670.71
397.26 K, 19970 kPa, x1 = 0.4	679.48
397.26 K, 19970 kPa, x1 = 0.8992	679.48
397.26 K, 29940 kPa, x1 = 0.4	694.66
397.26 K, 29940 kPa, x1 = 0.8992	694.66
397.26 K, 44910 kPa, x1 = 0.4	713.39
397.26 K, 44910 kPa, x1 = 0.8992	713.39
397.26 K, 49900 kPa, x1 = 0.4	718.87
397.26 K, 49900 kPa, x1 = 0.8992	718.87
397.26 K, 54890 kPa, x1 = 0.4	724.02
397.26 K, 54890 kPa, x1 = 0.8992	724.02
397.26 K, 59880 kPa, x1 = 0.4	728.9
397.26 K, 59880 kPa, x1 = 0.8992	728.9
397.26 K, 64940 kPa, x1 = 0.611	699.14
397.26 K, 69840 kPa, x1 = 0.4	738.01
397.26 K, 69840 kPa, x1 = 0.8992	738.01
397.26 K, 74820 kPa, x1 = 0.4	742.26
397.26 K, 74820 kPa, x1 = 0.8992	742.26
397.26 K, 84790 kPa, x1 = 0.4	750.27
397.26 K, 84790 kPa, x1 = 0.8992	750.27
397.26 K, 89770 kPa, x1 = 0.4	754.07
397.26 K, 89770 kPa, x1 = 0.8992	754.07
397.26 K, 104690 kPa, x1 = 0.4	764.67
397.26 K, 104690 kPa, x1 = 0.8992	764.67
397.26 K, 109670 kPa, x1 = 0.4	767.98
397.26 K, 109670 kPa, x1 = 0.8992	767.98
397.26 K, 114610 kPa, x1 = 0.4	771.16
397.26 K, 114610 kPa, x1 = 0.8992	771.16
397.26 K, 119600 kPa, x1 = 0.4	774.27
397.26 K, 119600 kPa, x1 = 0.8992	774.27
397.27 K, 1520 kPa, x1 = 0.611	608
397.27 K, 4850 kPa, x1 = 0.801	635.17
397.27 K, 4860 kPa, x1 = 0.611	616.98
397.27 K, 9850 kPa, x1 = 0.801	646.73
397.27 K, 9870 kPa, x1 = 0.611	628.41
397.27 K, 10000 kPa, x1 = 0.4	660.81
397.27 K, 10000 kPa, x1 = 0.8992	660.81
397.27 K, 14860 kPa, x1 = 0.801	656.72
397.27 K, 19840 kPa, x1 = 0.801	665.54
397.27 K, 19860 kPa, x1 = 0.611	646.79
397.27 K, 24850 kPa, x1 = 0.611	654.54
397.27 K, 24870 kPa, x1 = 0.801	673.51
397.27 K, 24950 kPa, x1 = 0.4	687.4
397.27 K, 24950 kPa, x1 = 0.8992	687.4
397.27 K, 29850 kPa, x1 = 0.611	661.6
397.27 K, 34860 kPa, x1 = 0.801	687.43
397.27 K, 34870 kPa, x1 = 0.611	668.12
397.27 K, 34940 kPa, x1 = 0.4	701.35
397.27 K, 34940 kPa, x1 = 0.8992	701.35
397.27 K, 39870 kPa, x1 = 0.611	674.11
397.27 K, 39930 kPa, x1 = 0.4	707.57
397.27 K, 39930 kPa, x1 = 0.8992	707.57
397.27 K, 44850 kPa, x1 = 0.801	699.35
397.27 K, 44870 kPa, x1 = 0.611	679.73
397.27 K, 49850 kPa, x1 = 0.611	684.97
397.27 K, 49850 kPa, x1 = 0.801	704.77
397.27 K, 54850 kPa, x1 = 0.611	689.91
397.27 K, 54860 kPa, x1 = 0.801	709.87
397.27 K, 59840 kPa, x1 = 0.611	694.59
397.27 K, 64820 kPa, x1 = 0.801	719.28
397.27 K, 64860 kPa, x1 = 0.4	733.56
397.27 K, 64860 kPa, x1 = 0.8992	733.56
397.27 K, 69920 kPa, x1 = 0.611	703.34
397.27 K, 69920 kPa, x1 = 0.801	723.77
397.27 K, 79800 kPa, x1 = 0.4	746.33
397.27 K, 79800 kPa, x1 = 0.8992	746.33
397.27 K, 79900 kPa, x1 = 0.801	731.97
397.27 K, 79910 kPa, x1 = 0.611	711.27
397.27 K, 84880 kPa, x1 = 0.611	715
397.27 K, 84880 kPa, x1 = 0.801	735.83
397.27 K, 89870 kPa, x1 = 0.611	718.57
397.27 K, 89870 kPa, x1 = 0.801	739.53
397.27 K, 94750 kPa, x1 = 0.4	757.72
397.27 K, 94750 kPa, x1 = 0.8992	757.72
397.27 K, 94840 kPa, x1 = 0.801	743.11
397.27 K, 94850 kPa, x1 = 0.611	722.01
397.27 K, 99720 kPa, x1 = 0.4	761.24
397.27 K, 99720 kPa, x1 = 0.8992	761.24
397.27 K, 99830 kPa, x1 = 0.611	725.33
397.27 K, 104800 kPa, x1 = 0.611	728.56
397.27 K, 104800 kPa, x1 = 0.801	749.91
397.27 K, 109770 kPa, x1 = 0.611	731.66
397.27 K, 119830 kPa, x1 = 0.801	759.4
397.27 K, 124560 kPa, x1 = 0.4	777.29
397.27 K, 124560 kPa, x1 = 0.8992	777.29
397.27 K, 129820 kPa, x1 = 0.4	780.45
397.27 K, 129820 kPa, x1 = 0.8992	780.45
397.27 K, 129840 kPa, x1 = 0.801	765.29
397.28 K, 1470 kPa, x1 = 0.7024	615.75
397.28 K, 1500 kPa, x1 = 0.492	600.98
397.28 K, 4850 kPa, x1 = 0.7024	624.89
397.28 K, 4860 kPa, x1 = 0.492	609.77
397.28 K, 9830 kPa, x1 = 0.7024	636.41
397.28 K, 9850 kPa, x1 = 0.492	620.92
397.28 K, 14840 kPa, x1 = 0.7024	646.37
397.28 K, 14860 kPa, x1 = 0.492	630.52
397.28 K, 19840 kPa, x1 = 0.7024	655.11
397.28 K, 24820 kPa, x1 = 0.7024	662.95
397.28 K, 29820 kPa, x1 = 0.7024	670.12
397.28 K, 29840 kPa, x1 = 0.492	653.43
397.28 K, 29860 kPa, x1 = 0.801	680.72
397.28 K, 34830 kPa, x1 = 0.7024	676.7
397.28 K, 34860 kPa, x1 = 0.492	659.77
397.28 K, 39840 kPa, x1 = 0.7024	682.81
397.28 K, 39850 kPa, x1 = 0.801	693.57
397.28 K, 44820 kPa, x1 = 0.7024	688.48
397.28 K, 44860 kPa, x1 = 0.492	671.15
397.28 K, 49810 kPa, x1 = 0.7024	693.79
397.28 K, 54840 kPa, x1 = 0.492	681.14
397.28 K, 54910 kPa, x1 = 0.7024	698.93
397.28 K, 59840 kPa, x1 = 0.492	685.74
397.28 K, 59850 kPa, x1 = 0.801	714.7
397.28 K, 59860 kPa, x1 = 0.7024	703.65
397.28 K, 64820 kPa, x1 = 0.492	690.08
